Source: the NIST ThermoML archive (doi:10.1021/je301347v)

Experiment: xn = mol fraction of the nth substance listed
Details: 101 kPa, Liquid, Voltage change across transformer (no electrode)

CCCC[n+]1cccc(C)c1.F[B-](F)(F)F [1-butyl-3-methylpyridinium tetrafluoroborate] + CCO
electrical conductivity [S/m]
Details	293.15 K	303.15 K	313.15 K	323.15 K
x1 = 0.0613	0.787	1.02	1.26	1.53
x1 = 0.0737	0.888	1.14	1.42	1.72
x1 = 0.0915	1.02	1.31	1.63	1.96
x1 = 0.1113	1.14	1.48	1.84	2.19
x1 = 0.1366	1.24	1.63	2.04	2.43
x1 = 0.167	1.4	1.81	2.22	2.68
x1 = 0.1985	1.47	1.92	2.36	2.81
x1 = 0.2393	1.52	1.97	2.4	2.89
x1 = 0.2811	1.5	1.96	2.4	2.89
x1 = 0.3174	1.41	1.85	2.31	2.85
x1 = 0.3652	1.32	1.76	2.24	2.76
x1 = 0.4385	1.19	1.61	2.11	2.54
x1 = 0.4652	1.09	1.49	1.92	2.45
x1 = 0.5281	0.934	1.28	1.68	2.21
x1 = 0.5747	0.823	1.17	1.56	2.04
x1 = 0.6938	0.51	0.77	1.15	1.63
x1 = 0.7799	0.37	0.56	0.891	1.33
x1 = 0.9102	0.215	0.36	0.59	0.903
x1 = 1	0.155	0.281	0.461	0.704

CCCC[n+]1cccc(C)c1.F[B-](F)(F)F [1-butyl-3-methylpyridinium tetrafluoroborate] + CO
electrical conductivity [S/m]
Details	293.15 K	303.15 K	313.15 K	323.15 K
x1 = 0.0337	2.29	2.71	3.11	3.5
x1 = 0.0438	2.45	2.89	3.34	3.8
x1 = 0.0479	2.66	3.12	3.6	4.09
x1 = 0.0567	2.9	3.41	3.96	4.53
x1 = 0.0699	3.17	3.85	4.49	5.1
x1 = 0.1142	3.33	3.98	4.66	5.38
x1 = 0.1504	3.37	4.06	4.74	5.5
x1 = 0.1734	3.31	4.01	4.74	5.52
x1 = 0.2236	3.11	3.8	4.55	5.34
x1 = 0.2696	2.78	3.44	4.15	4.89
x1 = 0.3345	2.43	3.08	3.77	4.49
x1 = 0.378	2.19	2.8	3.45	4.11
x1 = 0.4258	1.76	2.31	2.95	3.59
x1 = 0.5198	1.3	1.82	2.3	2.87
x1 = 0.61	0.944	1.32	1.78	2.27
x1 = 0.729	0.472	0.686	1.04	1.58
x1 = 0.8344	0.28	0.413	0.672	1.05
x1 = 0.9177	0.191	0.311	0.523	0.817
x1 = 1	0.155	0.281	0.461	0.704

CCCC[n+]1ccc(C)cc1.F[B-](F)(F)F [1-butyl-4-methylpyridinium tetrafluoroborate] + CCO
electrical conductivity [S/m]
Details	293.15 K	303.15 K	313.15 K	323.15 K
x1 = 0.0448	0.696	0.877	1.01	1.1
x1 = 0.0521	0.791	1.01	1.22	1.3
x1 = 0.0608	0.893	1.15	1.42	1.55
x1 = 0.0701	0.991	1.28	1.58	1.76
x1 = 0.0843	1.15	1.47	1.82	1.95
x1 = 0.1046	1.29	1.65	2.08	2.41
x1 = 0.1232	1.39	1.8	2.26	2.64
x1 = 0.1347	1.44	1.86	2.33	2.76
x1 = 0.1551	1.5	1.95	2.47	2.92
x1 = 0.1602	1.51	1.97	2.49	2.96
x1 = 0.2251	1.59	2.09	2.67	3.22
x1 = 0.247	1.59	2.09	2.68	3.26
x1 = 0.3371	1.52	2.02	2.61	3.22
x1 = 0.3512	1.5	2	2.59	3.22
x1 = 0.3799	1.45	1.95	2.52	3.17
x1 = 0.3856	1.44	1.94	2.52	3.16
x1 = 0.4126	1.4	1.88	2.46	3.1
x1 = 0.5649	1.1	1.37	2.01	2.63
x1 = 0.6798	0.851	1.02	1.61	2.16
x1 = 0.7941	0.601	0.696	1.2	1.68
x1 = 0.9258	0.305	0.38	0.717	1.06
x1 = 0.9963	0.154	0.242	0.459	0.74
x1 = 1	0.132	0.254	0.439	0.687

CCCC[n+]1ccc(C)cc1.F[B-](F)(F)F [1-butyl-4-methylpyridinium tetrafluoroborate] + CO
electrical conductivity [S/m]
Details	293.15 K	303.15 K	313.15 K	323.15 K
x1 = 0.0426	2.81	3.25	3.55	4.09
x1 = 0.0499	2.99	3.46	3.93	4.37
x1 = 0.0584	3.18	3.71	4.17	4.65
x1 = 0.0716	3.38	3.99	4.56	5.02
x1 = 0.0898	3.58	4.25	4.82	5.4
x1 = 0.1093	3.72	4.43	5.08	5.67
x1 = 0.1256	3.76	4.52	5.2	5.82
x1 = 0.1425	3.78	4.56	5.27	5.92
x1 = 0.2197	3.47	4.38	5.15	5.85
x1 = 0.2475	3.31	4.22	5	5.7
x1 = 0.305	3.13	3.84	4.61	5.27
x1 = 0.3465	2.81	3.53	4.27	4.9
x1 = 0.4593	2.18	2.68	3.3	3.83
x1 = 0.5657	1.42	1.93	2.47	2.85
x1 = 0.6744	0.993	1.28	1.71	1.99
x1 = 0.7908	0.565	0.761	1.12	1.29
x1 = 0.8788	0.341	0.487	0.78	0.925
x1 = 1	0.132	0.254	0.439	0.687

CCCC[n+]1ccccc1.F[B-](F)(F)F [1-butylpyridinium tetrafluoroborate] + CCO
electrical conductivity [S/m]
Details	303.15 K	313.15 K	323.15 K
x1 = 0.0353	0.785	1.02	1.32
x1 = 0.0417	0.863	1.18	1.38
x1 = 0.0455	1.06	1.27	1.54
x1 = 0.0461	1.04	1.29	1.54
x1 = 0.0551	1.15	1.48	1.72
x1 = 0.0564	1.24	1.5	1.83
x1 = 0.0634	1.44	1.64	2.22
x1 = 0.0735	1.43	1.82	2.12
x1 = 0.084	1.56	1.98	2.31
x1 = 0.1033	1.68	2.24	2.56
x1 = 0.1165	1.8	2.39	2.7
x1 = 0.1291	1.86	2.51	2.92
x1 = 0.1597	2.16	2.74	3.01
x1 = 0.1656	2.28	2.77	3.23
x1 = 0.2093	2.38	2.95	3.41
x1 = 0.2237	2.44	2.96	3.43
x1 = 0.2751	2.46	2.97	3.45
x1 = 0.3929	2.17	2.7	3.2
x1 = 0.4464	1.96	2.5	2.86
x1 = 0.5095	1.66	2.2	2.56
x1 = 0.617	1.2	1.77	2.17
x1 = 0.7008	0.884	1.43	1.71
x1 = 0.8158	0.566	1.03	1.28
x1 = 0.8973	0.436	0.821	1.04
x1 = 1	0.321	0.519	0.785

CCCC[n+]1ccccc1.F[B-](F)(F)F [1-butylpyridinium tetrafluoroborate] + CO
electrical conductivity [S/m]
Details	293.15 K	303.15 K	313.15 K	323.15 K
x1 = 0.0432	2.87	3.37	3.91	4.28
x1 = 0.0485	2.98	3.51	3.95	4.62
x1 = 0.0698	3.21	3.82	4.45	5.11
x1 = 0.0901	3.45	4.17	4.89	5.46
x1 = 0.1091	3.71	4.39	5.14	5.81
x1 = 0.1252	3.75	4.54	5.35	6.06
x1 = 0.142	3.82	4.61	5.45	6.12
x1 = 0.1629	3.79	4.59	5.49	6.19
x1 = 0.1773	3.78	4.57	5.38	6.12
x1 = 0.2273	3.47	4.3	5.16	6.01
x1 = 0.2401	3.43	4.26	5.13	5.94
x1 = 0.2966	3.14	3.99	4.81	5.59
x1 = 0.3803	2.37	3.05	3.72	4.51
x1 = 0.4277	2.07	2.71	3.39	4.08
x1 = 0.4808	1.75	2.29	2.89	3.49
x1 = 0.5618	1.2	1.72	2.22	2.77
x1 = 0.6317	0.894	1.35	1.81	2.35
x1 = 0.698	0.74	1.07	1.45	1.89
x1 = 0.8355	0.406	0.647	0.966	1.39
x1 = 0.879	0.321	0.514	0.776	1.12
x1 = 0.9279	0.27	0.446	0.684	0.976
x1 = 1	0.181	0.321	0.519	0.785
